Patent US20070031504A1, “Microdevices comprising nanocapsules for controlled delivery of drugs and method of manufacturing same” (MIV Therapeutics Inc., priority 2005, published 2007)

Assay: Solubility of paclitaxel in the hydrophilic liquid core solvents
Conditions: solvents such as DMSO and DENA

concentration at which the drug may be dissolved in liquid core: 10-60 weight percent
Structure (SMILES): CC(=O)O[C@H]1C(=O)[C@@]2(C)[C@H]([C@H](OC(=O)c3ccccc3)[C@]3(O)C[C@H](OC(=O)[C@H](O)[C@@H](NC(=O)c4ccccc4)c4ccccc4)C(C)=C1C3(C)C)[C@]1(OC(C)=O)CO[C@@H]1C[C@@H]2O [paclitaxel]
